Type in all cases: biochemical
In assay [1] the target is T1, IspG (GcpE) (Escherichia coli, UniProt P62620).
T1 construct: active dimeric form
The experiment in a line: anaerobic NADPH consumption assay, preincubation with reduction system.

Assay [2] has as its target T1, IspG (GcpE). The experiment in a line: anaerobic NADPH consumption assay of purified IspG with […] MEcPP.
The target in assay [3] is T1, IspG (GcpE). Nature of the assay: anaerobic NADPH consumption assay ([…] nm), […] min preincubation with reduction system; […]-NMR of fluoride release.

T1 sequence (P61949 2-176): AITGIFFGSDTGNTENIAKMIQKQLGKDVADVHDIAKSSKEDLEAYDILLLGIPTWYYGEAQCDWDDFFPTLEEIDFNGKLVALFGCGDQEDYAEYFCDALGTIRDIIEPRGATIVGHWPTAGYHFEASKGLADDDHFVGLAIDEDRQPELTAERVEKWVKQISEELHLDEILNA
T1 sequence (P28861 2-248, further chain): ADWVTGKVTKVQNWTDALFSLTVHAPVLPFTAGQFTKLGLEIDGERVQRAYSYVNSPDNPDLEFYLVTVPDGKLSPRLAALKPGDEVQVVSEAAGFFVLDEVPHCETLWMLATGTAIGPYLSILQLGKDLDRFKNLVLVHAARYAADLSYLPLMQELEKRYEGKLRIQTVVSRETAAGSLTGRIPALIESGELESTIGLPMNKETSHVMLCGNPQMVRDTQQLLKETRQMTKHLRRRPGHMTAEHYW
T1 sequence (P62620 whole entry): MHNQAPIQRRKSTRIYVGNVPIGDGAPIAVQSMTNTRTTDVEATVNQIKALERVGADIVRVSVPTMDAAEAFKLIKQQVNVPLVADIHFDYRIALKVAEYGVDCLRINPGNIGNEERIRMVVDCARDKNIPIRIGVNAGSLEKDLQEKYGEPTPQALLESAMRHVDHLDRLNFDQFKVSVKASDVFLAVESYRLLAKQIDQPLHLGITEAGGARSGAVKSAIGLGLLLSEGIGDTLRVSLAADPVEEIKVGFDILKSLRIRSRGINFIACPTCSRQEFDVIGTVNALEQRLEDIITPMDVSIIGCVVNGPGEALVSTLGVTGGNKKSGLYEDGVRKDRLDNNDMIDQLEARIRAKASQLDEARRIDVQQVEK

As for `C=C[C@@]1(CO)OP(=O)(O)OP(=O)(O)OC[C@H]1O` [VEcPP, 2-C-vinyl-D-erythritol cyclodiphosphate], on IspG (GcpE) [1], half-maximal inhibition (IC50) was put at 19.5 ± 1.3 µM.

Consider `C[C@@]1(CO)OP(=O)(O)OP(=O)(O)OC[C@H]1O` [compound 1, 2-C-methyl-D-erythritol 2,4-cyclodiphosphate], for which the “anaerobic NADPH consumption assay of purified IspG with 250 μM MEcPP” value at IspG (GcpE) [2] was ~ 200 nmol min−1 mg−1.

As for `O=P1(O)OC[C@@H](O)[C@@](CO)(CF)OP(=O)(O)O1` [compound 8, monofluoromethyl-D-erythritol cyclodiphosphate], the IC50 (usually the concentration that gives 50% inhibition) against IspG (GcpE) [3] came to 10.4 ± 1 µM.

The values are drawn from PMC12648460, “Substitution of CH3 by CH2F in 2‐Methylerythritol Cyclodiphosphate Triggers Potent Inhibition of IspG with Concomitant Fluoride Ion Expulsion” (Chemistry (Weinheim an Der Bergstrasse, Germany), 2025).
